In the assay the test system is pentagastrin stimulated gastric acid secretion. Nature of the assay: Rat lumen perfused stomach (modified Ghosh and Schild procedure). It is filed as in vivo. The note with it: i.v. administration; for inhibition at 10 µmol/kg: iv, 10µmole/kg, read-out: Rat G.S. % inhibition @ 10µmole/kg. The source says:
Using a modification of the procedure described by Ghosh and Schild (Br. J. Pharmacology, 13, 54, 1958), the compounds of the following Examples were found on i.v. administration at a concentration of 10µmole/kg to cause an inhibition of pentagastrin stimulated gastric acid secretion as indicated in the following Table.

Counter-ions that a name gives are not always drawn.

As to `Cc1ccccc1Nc1nc(N(C)c2ccccc2)c2ccccc2n1` [Example 26, 2-(2-methylphenylamino)-4-(N-methylphenylamino)quinazoline hydrochloride], the inhibition at 10 µmol/kg amounted to 79%. Still for that read-out and setting: as for `COc1cccc2c(Nc3ccccc3C)nc(N(C)C)nc12` [Example 5, 2-dimethylamino-8-methoxy-4-(2-methylphenylamino)quinazoline], the figure is 37%; as for `COc1cccc2c(Nc3ccccc3C)nc(N(C)c3ccccc3)nc12` [Example 21, 2-(N-methylphenylamino)-4-(2-methylphenylamino)-8-methoxyquinazoline], 37%. The same measure, in the same setting: the value for `Cc1cc(F)ccc1Nc1nc(N(C)c2ccccc2)c2ccccc2n1` [Example 32, 2-[(2-methyl-4-fluorophenyl)amino]-4-(N-methylphenylamino)quinazoline hydrochloride] was 96%; that for `CN(c1ccccc1)c1nc(Nc2ccccc2)nc2ccccc12` [Example 27, 2-phenylamino-4-(N-methylphenylamino)quinazoline hydrochloride] was 71%; that for `COc1cccc2c(NCc3ccccc3C)nc(N)nc12` [Example 4, 2-amino-8-methoxy-4-(2-methylbenzylamino)quinazoline] was 37%. Still for that read-out and setting: the value for `CNc1nc(Nc2ccccc2C)c2cccc(OC)c2n1` [Example 13, 2-methylamino-8-methoxy-4-(2-methylphenylamino)quinazoline] was 20%. Turning to “2-phenylethylamino-4-(2-methylphenylamino)quinazoline [Example 16]”, the “Rat G.S. % inhibition @ 10µmole/kg” value is reported as 31%.

In the case of `Cc1ccccc1Nc1nc(N2CCCC2)nc2ccccc12` [Example 8, 2-pyrrolidino-4-(2-methylphenylamino)quinazoline], the inhibition at 10 µmol/kg turned out to be 17%. Still for that read-out and setting: the value for `Cc1ccccc1Nc1nc(N(C)c2ccccc2)nc2ccccc12` [Example 22, 2-(N-methylphenylamino)-4-(2-methylphenylamino)quinazoline hydrochloride] was 27%; that for `Cc1ccccc1Nc1nc(N)nc2c(C)cccc12` [Example 6, 2-amino-8-methyl-4-(2-methylphenylamino)quinazoline] was 48%.

Take `COc1cccc2c(N(C)c3ccccc3)nc(Nc3ccccc3C)nc12` [Example 24, 4-(N-methylphenylamino)-2-(2-methylphenylamino)-8-methoxyquinazoline]: the inhibition at 10 µmol/kg came to 97%. On the same count and under the same terms, as for `Cc1cc(O)ccc1Nc1nc(N(C)c2ccccc2)c2ccccc2n1` [Example 30, 2-[(4-hydroxy-2-methylphenyl)amino]-4-(N-methylphenylamino) quinazoline hydrochloride], the figure is 23%. With `Cc1ccccc1CNc1nc(N)nc2ccccc12` [Example 25, 2-amino-4-(2-methylbenzylamino)quinazoline], the inhibition at 10 µmol/kg turned out to be 24%. Same read-out and setting: as for `COc1ccc(Nc2nc(N)nc3c(OC)cccc23)c(C)c1` [Example 3, 2-amino-8-methoxy-4-(2-methyl-4-methoxyphenylamino)quinazoline], the figure is 16%; as for `CCc1ccc2nc(N)nc(Nc3ccccc3C)c2c1` [Example 11, 2-amino-4-(2-methylphenylamino)-6-ethylquinazoline], 28%; as for `Cc1ccccc1Nc1nc(N)nc2ccccc12` [Example 7, 2-amino-4-(2-methylphenylamino)quinazoline], 20%.

With `COc1cccc2c(N(C)c3ccccc3)nc(N)nc12` [Example 29, 2-amino-4-(N-methylphenylamino)-8-methoxyquinazoline hydrochloride], the inhibition at 10 µmol/kg was determined as 13%. Consider `CN(c1ccccc1)c1nc(N(C)c2ccccc2)c2ccccc2n1` [Example 20, 2,4-Bis-(N-methylphenylamino)quinazoline hydrochloride], for which the inhibition at 10 µmol/kg stood at 72%. Turning to `COc1ccccc1Nc1nc(N)nc2c(OC)cccc12` [Example 18, 2-amino-8-methoxy-4-(2-methoxyphenylamino)quinazoline], the inhibition at 10 µmol/kg is 12%. With `COc1cccc2c(Nc3ccccc3C)nc(N3CCCC3)nc12` [Example 15, 2-pyrrolidino-8-methoxy-4-(2-methylphenylamino)quinazoline], the inhibition at 10 µmol/kg turned out to be 31%. Consider `COc1cccc2c(NCc3ccccc3)nc(N)nc12` [Example 2, 2-amino-8-methoxy-4-benzylaminoquinazoline], for which the inhibition at 10 µmol/kg was found to be 25%. Still for that read-out and setting: as for `COc1cccc2c(Nc3ccccc3C)nc(N)nc12` [Example 1, 2-amino-8-methoxy-4-(2-methylphenylamino)quinazoline], the figure is 60%; as for `Cc1ccccc1CNc1nc(N(C)c2ccccc2)c2ccccc2n1` [Example 31, 2-(2-methylbenzylamino)-4-(N-methylphenylamino)quinazoline hydrochloride], 8%.

(Values after patent publication EP0322133A1, “Quinazoline derivatives” (SmithKline Beecham Intercredit B.V., priority 1987, dated 1989).)
